Assay results reported in patent publication US20150368642A1, “LNA OLIGONUCLEOTIDE CARBOHYDRATE CONJUGATES” (HOFFMANN-LA ROCHE INC., priority 2013, published 2015).
l = locked nucleic acid (LNA); d = 2'-deoxy (DNA)

Assays:
[1] = Oligonucleotide content in liver and kidney by sandwich ELISA (Example 5); format: in vivo, C57BL6/J mice; conditions: mice
Excerpt: (§1) Capital letters are LNA nucleosides (such as beta-D-oxy LNA), lower case letters are a DNA nucleoside. Subscript s represents a phosphorothioate internucleoside linkage (region A). LNA cytosines are optionally 5-methyl cytosine. The 2PO linker (region B) is 5′ to the sequence region A, and comprises of two DNA nucleosides linked by phosphodiester linkage, with the internucleoside linkage between the 3′ DNA nucleoside of region A and the 5′ LNA nucleoside of region A also being phosphodiester. A linkage group (Y) may be used to link the conjugate group, when present, to region B, or A (SEQ ID NO 13 and 11). […]
RNA was isolated from liver and kidney and subjected to qPCR with ApoB specific primers and probe to analyse for ApoB mRNA knockdown. The oligonucleotide content was measured using ELISA method and total cholesterol in serum was measured. […]
(§2) For each sample 0.5 μg total RNA was adjusted to (10.8 μl) with RNase free H2O and mixed with 2 μl random decamers (50 μM) and 4 μl dNTP mix (2.5 mM each dNTP) and heated to 70° C. for 3 min after which the samples were rapidly cooled on ice. […] Oligonucleotide content in liver and kidney was measured by sandwich ELISA method.

ApoB [2] = assay: Total cholesterol in serum (Example 5); format: in vivo, C57BL6/J mice; conditions: mice, iv and sc administration, versus SEQ ID NO 12 and 14, FIG. 9
Excerpt: as §1
(§3) RNA was isolated from liver and kidney and subjected to qPCR with ApoB specific primers and probe to analyse for ApoB mRNA knockdown. The oligonucleotide content was measured using ELISA method and total cholesterol in serum was measured.
Immediately before sacrifice retro-orbital sinus blood was collected using S-monovette Serum-Gel vials (Sarstedt, Nümbrecht, Germany) for serum preparation. Serum was analyzed for total cholesterol using ABX Pentra Cholesterol CP (Triolab, Brondby, Denmark) according to the manufacturer's instructions.

ApoB [3] = assay: Non-human primate study, serum ApoB and LDL-C (ApoB conjugates); format: in vivo, cynomolgus monkeys; conditions: Example 7; single i.v. dose; FIG. 16
Description: (§4) The primary objective for this study is to investigate selected lipid markers over 7 weeks after a single slow bolus injection of anti-PCSK9 and anti-ApoB LNA conjugated to GalNac cluster (Conj2a) to cynomolgus monkeys and assess the potential toxicity of compounds in monkey. The compounds which were prepared in sterile saline (0.9%) at an initial concentration of 0.625 and 2.5 mg/ml).
(§5) Male (PCSK9) or female monkeys (ApoB) monkeys of at least 24 months old are used, and given free access to tap water and 180 g of MWM(E) SQC SHORT expanded diet (Dietex France, SDS, Saint Gratien, France) will be distributed daily per animal. The total quantity of food distributed in each cage will be calculated according to the number of animals in the cage on that day. In addition, fruit or vegetables will be given daily to each animal. The animals will be acclimated to the study conditions for a period of at least 14 days before the beginning of the treatment period. During this period, pre-treatment investigations will be performed. The animals are dosed i.v. at a dose if, for example, 0.25 mg/kg or 1 mg/kg. The dose volume will be 0.4 mL/kg. 2 animals are used per group. After three weeks, the data will be analyzed and a second group of animals using a higher or lower dosing regimen may be initiated—preliminary dose setting is 0.5 mg/kg and 1 mg/kg, or lower than that based on the first data set.
The dose formulations will be administered once on Day 1. Animals will be observed for a period of 7 weeks following treatment, and will be released from the study on Day 51. Day 1 corresponds to the first day of the treatment period. Clinical observations and body weight and food intake (per group) will be recorded prior to and during the study.
The following parameters will be determined for all surviving animals at the occasions indicated below: • full biochemistry panel (complete list below)—on Days −8, 15 and 50, • liver Safety (ASAT, ALP, ALAT, TBIL and GGT only)—on Days 4, 8, 22 and 36, • lipid profile (Total cholesterol, HDL-C, LDL-C and Triglycerides) and Apo-B only—on Days −1, 4, 8, 22, 29, 36, and 43.
Blood (approximately 1.0 mL) is taken into lithium heparin tubes (using the ADVIA 1650 blood biochemistry analyzer): Apo-B, sodium, potassium, chloride, calcium, inorganic phosphorus, glucose, HDL-C, LDL-C, urea, creatinine, total bilirubin (TBIL), total cholesterol, triglycerides, alkaline phosphatase (ALP), alanine aminotransferase (ALAT), aspartate aminotransferase (ASAT), creatine kinase, gamma-glutamyl transferase (GGT), lactate dehydrogenase, total protein, albumin, albumin/globulin ratio.
Other Analysis: WO2011009697 & WO2010142805 provides the methods for the following analysis: qPCR, PCSK9/ApoB mRNA analysis, Other analysis includes PCSK9/ApoB protein ELISA, serum Lp(a) analysis with ELISA (Mercodia No. 10-1106-01), tissue and plasma oligonucleotide analysis (drug content), Extraction of samples, standard- and QC-samples, Oligonucleotide content determination by ELISA. […] There was no indication of hepatotoxicity or nephrotoxicity with the ApoB targeting compounds.

ApoB mRNA = assay: Knock down of ApoB mRNA in liver and kidney (qPCR, Example 5); format: in vivo, C57BL6/J mice; conditions: mice; for knock down of ApoB mRNA: single iv or sc dose equimolar to 0.25 mg/kg, days 1-7, FIG. 8
Excerpt: Capital letters are LNA nucleosides (such as beta-D-oxy LNA), lower case letters are a DNA nucleoside. Subscript s represents a phosphorothioate internucleoside linkage (region A). LNA cytosines are optionally 5-methyl cytosine. The 2PO linker (region B) is 5′ to the sequence region A, and comprises of two DNA nucleosides linked by phosphodiester linkage, with the internucleoside linkage between the 3′ DNA nucleoside of region A and the 5′ LNA nucleoside of region A also being phosphodiester. A linkage group (Y) may be used to link the conjugate group, when present, to region B, or A (SEQ ID NO 13 and 11). C57BL6/J mice were injected either iv or sc with a single dose saline or 0.25 mg/kg unconjugated LNA-antisense oligonucleotide (SEQ ID N012) or equimolar amounts of LNA antisense oligonucleotides conjugated to GalNAc1, GalNAc2, or cholesterol (2PO) and sacrificed at days 1-7 according to the table below (experimental design).
as §3
C57BL/6JBom female animals, app. 20 g at arrival, were dosed with 10 ml per kg BW (according to day 0 bodyweight) i.v. or s.c. of the compound formulated in saline or saline alone according to the table above.
The animals were anaesthetised with 70% CO2-30% O2 and sacrificed by cervical dislocation according to the above table. One half of the large liver lobe and one kidney were minced and submerged in RNAlater. The other half of liver and the other kidney was frozen and used for tissue analysis. […]
as §2

PCSK9 = assay: Non-human primate study, serum PCSK9 protein ELISA; format: in vivo; conditions: cynomolgus monkeys, single dose, entire length of the study
Description: as §4
as §5, with “During this period, pre-treatment investigations will be performed. The animals are dosed i.v. at a dose if, for example, 0.25 mg/kg or 1 mg/kg. The dose volume will be 0.4 mL/kg. 2 animals are used per group.” left out
The dose formulations will be administered once on Day 1. […] Clinical observations and body weight and food intake (per group) will be recorded prior to and during the study. […]

[4] = ALT in final serum (antimiR-122 study); format: in vivo, mouse; conditions: mice, final serum day 7
Description: Serum analysis for ALT, AST and cholesterol was performed on the “Cobas INTEGRA 400 plus” clinical chemistry platform (Roche Diagnostics), using 10 μl of serum.
(§6) An in vivo mouse study was performed using a total of 9 groups of mice (n=5). Each mouse was dosed i.v. on days 0, 2 and 4 with either 0.5 mg/kg or 2 mg/kg or equimolar doses of the GalNAc conjugated LNA's compared to parent LNA compound. A saline control group was included (see study set up in Tab. 1). Serum samples were taken 4 days pre administration, interim at day 4 and at endpoint day 7. Liver and kidney samples were stored in RNA later. Validation of miR122 knock down of miR122 was done as described in Obad Nat Genet. 2011 Mar. 20; 43(4):371-8 (FIG. 17). The cholesterol level in serum were analyzed as described in Elmen J, et al. LNA-mediated microRNA silencing in non-human primates. Nature. 2008; 452:896-899. (FIG. 18) and mRNA levels of two miR122 down regulated genes (Aldo A and Bckdk) were analyzed using standard QPCR assay techniques (FIG. 19). ALT was measured to assess tolerability of the compounds (FIG. 20).

miR-122 = assay: LNA antimiR GalNAc conjugates, miR122 knock down in mice; format: in vivo, mouse; conditions: for Aldo A and Bckdk mRNA: already in the low dose group (3×0.5 mg/kg), liver; for miR122 knock down in the liver: i.v. days 0, 2 and 4, day 7, compared to parent LNA; for total cholesterol levels: i.v. days 0, 2 and 4, serum pre-dose, day 4 and day 7
Description: as §6

Substance	total cholesterol in serum (ApoB [2])	knock down of ApoB mRNA (ApoB mRNA)	ALT [4]	Aldo A and Bckdk mRNA (miR-122)	miR122 knock down in the liver (miR-122)	total cholesterol levels (miR-122)	further results
SEQ ID NO 11: GsCsaststsgsgstsastsTsCsA, GalNAc cluster Conj2a; ApoB (GCATTGGTATTCA; listed as DNA, chemistry not fully specified)	better effect that the unconjugated and the cholesterol conjugated compounds	knock down of ApoB mRNA better than the unconjugated ApoB LNA	–	–	–	–	specific activity (activity relative to liver uptake) ([1]; iv dosing): higher specific activity than GalNAc 1 conjugate; pharmacology (serum ApoB and LDL-C) (ApoB [3]): did not exhibit significant pharmacology
SEQ ID NO 13: GsCsaststsgsgstsastsTsCsA, GalNAc cluster Conj1a; ApoB (GCATTGGTATTCA; sugars from the 5' end l2 d8 l3, all phosphorothioate, methylation of C not given here; GalNAc cluster Conj1a conjugated)	better effect that the unconjugated and the cholesterol conjugated compounds	knock down of ApoB mRNA better than the unconjugated ApoB LNA	–	–	–	–	tissue content of the oligonucleotides, uptake in liver ([1]; iv and sc, FIG. 10): very much uptake in liver; knock down of ApoB mRNA, iv versus sc dosing (ApoB mRNA; single dose 0.36 mg/kg): iv dosing is better than sc dosing
SEQ ID NO 28: AsAsTsgscstsascsasasasasCsCsCsA, GalNAc cluster Conj2a; PCSK9 (AATGCTACAAAACCCA; listed as DNA, chemistry not fully specified)	–	–	–	–	–	–	down regulation of PCSK9 (and LDL-C), onset and duration (PCSK9): rapid and consistent down regulation of PCSK9 and LDL-C throughout the duration of the study
SEQ ID NO 52: 5′-Conj1a^mCsAs^mCsAs^mCsTs^mCs^mC-3′ (CACACTCC; LNA, 5-methyl C, 5' GalNAc Conj1a, chemistry not fully specified)	–	–	increase in ALT	up regulation of Aldo A and Bckdk mRNA	remarkable improvement of miR122 knock down in the liver	decreased total cholesterol levels	–
SEQ ID NO 54: 5′-Conj1a^mCsAs^mCsAs^mCsTs^mCs^mCca^mCsAs^mCsAs^mCsTs^mCs^mC-3′ (CACACTCCCACACACTCC; LNA, 5-methyl C, ca linker, 5' GalNAc Conj1a, chemistry not fully specified)	–	–	tendency to improve	up regulation of Aldo A and Bckdk mRNA	remarkable improvement of miR122 knock down in the liver	decreased total cholesterol levels	–
